Patent publication US20250340837A1, “CELLS” (University of Geneva, priority 2022, published 2025)

How the values were obtained:
[1] = test system: phoenix auditory neurons; experiment: Induced Ca2+ cytosolic release (FLUO-8) in differentiated phoenix auditory neurons; assay type: cell-based, mouse; conditions: for EC50: D7 differentiated phoenix SGCs, dose response from max-min amplitude, read-out: EC50 of induced Ca2+ transients; for Induction of Ca2+ transients: phoenix auditory neurons after 7 days of differentiation
Procedure: (A-C) Kinetics of Ca^2+ transients induced by (A) Glutamate (higher trace for the higher concentration), (B) ATP (higher trace for the higher concentration), (C) Kainate in phoenix auditory neurons after 7 days of differentiation. Phoenix auditory neurons were loaded with Ca^2+ sensitive ratiometric probe (FLUO-8) and stimulated with increasing concentrations of glutamate ([…]), ATP (0.005-10 μM) or kainate (0.02-50 μM). (D) Dose response curves were extracted from the max-min amplitude values, allowing the determination of an EC50 value (in order of highest to lowest effect: Ionomycin, ATP, Glutamate, Thapsigargin and Kainate (no effect for Kainate). (E). Ionomycin and Thapsigargin were used as positive control. Data represent the average+/−SEM of 3 independent experiments.
A total of 32,000 cells/well were differentiated to auditory neurons on a 96-well plate coated with Matrigel, as previously described (Rousset et al., 2020). Differentiated cells were loaded with FLUO-8 (Interchim), according to the manufacturer's protocol. After an incubation period of typically 45 min at 37° C. with the inducing agent or control, the induced cytosolic calcium release was assessed in a FDSS/pCELL Functional Drug Screening System (Hamamatsu). The neuronal kinetics of calcium release was followed over about 10 min following treatment, with one measure every 0.5 s.
(§1) To further explore the excitatory function of differentiated phoenix SGCs, Ca2+ mobilization was studied in response to several physiological stimuli, namely glutamate, ATP, and kainate (FIG. 4). […] Ionomycin, an ionophore facilitating the transport of divalent cations across cell membranes, and thapsigargin, inhibiting the SERCA pump and therefore the transfer of Ca^2+ toward endoplasmic reticulum, were used as positive controls (FIG. 4D). The excitatory pattern of phoenix SGCs was also compared with human fetal sphere-derived ones and mouse spiral ganglion explants using live Ca^2+ imaging. […] Therefore, at any passage and following differentiation, phoenix auditory SGCs resemble the auditory neuron physiology.
Further, the impact of BDNF and NT-3 alone or in combination on phoenix auditory neurons' glutamatergic function was assessed. Phoenix neuroprogenitors were plated on poly-ornithine and laminin coated 96 well plates and differentiated for 7 days with or without BDNF and NT-3 alone or in combination. To assess effect of neurotrophins, the auditory neuron were stimulated twice with glutamate: first with 10 μM (EC90) and 10 min later with 100 μM, eliciting a maximal glutamatergic response (FIG. 15A). Traces show the Ca2+ mobilization kinetics with 50 ng/mLNT-3+25 ng/mL BDNF (top light curve) or without neurotrophins (bottom dark curve) upon glutamate stimulation as recorded with Ca2+ sensitive ratiometric probe (FLUO-8). Arrows show the max-min amplitude of the response following the first (10 μM) or the second (100 μM) glutamate stimulation. Heatmaps showing the effect of BDNF and NT-3 alone or in combination on Ca2+ release (min-max amplitude) induced by 10 μM glutamate (FIG. 15B) and 100 μM glutamate (FIG. 15C).

[2] = test system: C57Bl/6 ANPGs; experiment: Neurosphere growth and self-propagation induction in low stemness ANPGs; assay type: cell-based, mouse
Procedure: (B) Picture showing representative triplicate of ANPG spheres cultured for 1 month in a 96 well plate. Phoenix cells are used as positive control. C57Bl/6: ANPGs were cultured in DMEM:F12+N2 and B27 supplements without growth factors. +GF: DMEM:F12+N2 and B27+FGF 10 ng/mL+EGF 20 ng/mL+IGF 50 ng/mL+Heparan Sulfate 50 ng/mL. GF+DS:DMEM:F12+N2 and B27+IGF+EFG+HS+FGF+LDN193189 0.5 μM+SB431542 10 μM. GF+CHIR: DMEM:F12+N2 and B27+IGF+EFG+HS+FGF+CHIR99021 3 μM. +GF+CHIR+DS: DMEM:F12+N2 and B27+IGF+EFG+HS+FGF+LDN193189 0.5 μM+SB431542 10 μM+CHIR99021 3 μM. Phoenix+GF: phoenix ANPG cultured in standard conditions (DMEM:F12+N2 and B27+IGF+EFG+HS+FGF). (C) Graph showing the average sphere area at different time points (up to 38 days). […] (D) Following DNA staining, flow cytometry was performed to determine the percentage of cells engaged in the cell cycle (phase S/G2M; proliferating). […] (E) After reprogramming, ANPGs were differentiated on Matrigel coating following removal of mitogenic factors. […]
(B) Representative pictures of ANPG spheres 4 days following the first passage cultured in “standard” conditions (GF) or (C, left) in conditions to induce stemness (GF+LDN193189 0.5 μM+SB431542 10 μM+CHIR99021 3 μM). […] (D) At every passage, following dissociation with Accutase, ANPGs were counted with a fast read counting chamber. […]

[3] = test system: C57Bl/6 ANPGs; experiment: Stemness reprogramming screen with pharmacological modulators plus CHIR99021; assay type: cell-based, mouse; conditions: 30 days, with CHIR99021 3 μM
Procedure: (C) C57Bl/6 ANPGs were plated at 10,000 cells/well of a 96 well plate and treated with the WNT agonist (CHIR99021; 3 μM) and the above mentioned compounds (B) for 30 days. Graph representing the average growth (% ANPGs cultured in presence of GF+CHIR) after 30 days. […] Data represent the average±SEM of three independent experiments.
C57Bl/6 ANPGs were plated at 10,000 cells/well of a 96 well plate and treated with the WNT agonist (CHIR99021; 3 μM) and various modulator(s).

[4] = test system: stemness-induced ANs; experiment: Glutamate-induced Ca2+ response in stemness-induced auditory neurons (Regenix); assay type: cell-based, mouse
Procedure: FIG. 21 Phenotypical characterization of stemness induced Auditory Neurons (ANs). (A) C57Bl/6 ANPG, were treated with WNT agonist (CHIR99021; 3 μM) or TGFb antagonist (dual SMAD inhibitors; LDN193189 0.5 μM, SB431542 10 μM) aiming at replicating phoenix ANPG stemness phenotype. After 38 days of induction, stemness-induced ANPGs were differentiated on Matrigel coating following removal of mitogenic factors. BDNF (10 ng/mL), NT-3 (50 ng/mL) and LIF (10 ng/mL) were added during the 7 days of differentiation. (B-E) Immunostainings in differentiated ANs were compared to stemness-induced ANPGs neurospheres at the same passage. (B-B′) B-III tubulin (TUJ, green) and Sox2 (red) stainings were respectively performed in (B) ANPGs and (B′) ANs. (C-C′) B-III tubulin (TUJ, green) and Nestin (Nes, red) stainings were respectively performed in (C) ANPGs and (C′) ANs. D-D′) B-III tubulin (TUJ, green) and S100 (red) stainings were respectively performed in (D) ANPGs and (D′) ANs. E-E′) B-III tubulin (TUJ) and KI67 stainings were respectively performed in (E) ANPGs and (E′) ANs. TUJ staining appears in green in ANPGs and red in ANs and KI67 appears in red in ANPGs and in green in ANs. […] (F-G) Excitatory potential of stemness-induced ANs was tested using live Ca^2+ imaging. Stemness-induced ANPGs were differentiated for 7 days in absence of growth factors. […]

[5] = test system: human fetal sphere-derived SGCs; experiment: Live Ca2+ imaging in human fetal sphere-derived SGCs; assay type: cell-based
Description: as §1

[6] = test system: mouse spiral ganglion explants; experiment: Live Ca2+ imaging in mouse spiral ganglion explants; assay type: cell-based
Description: as §1

[7] = test system: spiral ganglion explants (SGE); experiment: Organotypic spiral ganglion explant culture, neurite outgrowth and intersections (modified Sholl analysis); assay type: cell-based, mouse; conditions: P7 SGE, 96 h; for Neurite outgrowth (neurite length index, NLI): compared to spontaneous outgrowth
Procedure: FIG. 13 Effect of BDNF and NT-3 alone or in combination on organotypic spiral ganglion explant culture morphology. Spiral ganglion explants (SGE) of freshly dissected P7 old mouse pups were seeded in poly-D-lysin and laminin coated 96 well plates and incubated without (n=94) or with BDNF, NT-3 or combinations of these for 96 h. Neurite outgrowth (A-C) and intersections (D-F) were quantified with representative explant micrographs underneath (G) for the given treatments. Numbers indicate the amount of neurotrophin added in ng/ml. […] In controls, a substantial outgrowth with a mean NLI of 20828 (±5647/4442; n=94), was registered. […] (D-F) Bar graphs show the intersection quantification, representing the approximated number of neurons with outgrowth. […] (A-F) Bars represent geometric means in μm; error bars indicate ±upper and lower 95% confidence intervals for the mean. The shaded area in the bottom section of each graph represents control levels (i.e. levels for samples that were not treated with BDNF and/or NT-3). One-way ANOVA, followed by Tukey-Kramer post-hoc test. Dunn non-parametric comparison with control, *p<0.05, **p<0.01, ***p<0.001.
(§2) Organotypic spiral ganglion explant culture was carried out prior to in vitro phoenix sphere derived neuron assays, as shown in the workflow in FIG. 12. […] After fixation, specimens were stained with DAPI and for β-III-tubulin (TuJI antibody) to address the effect of neurotrophins on neurite outgrowth and neuron numbers, quantified with a modified Sholl analysis routine. For each explant, the neurite length index (NLI) was computed, and associated intersection counts served as approximation for neuron numbers. The lower rows show phoenix auditory neuroprogenitor sphere dissociation and induction of differentiation. To assess the outgrowth morphology, cells were seeded at 7,000 cells/well with presence of NT-3 or BDNF for 72 h. Differentiated cells were stained for β-III-tubulin, GFAP and DAPI for morphological analysis. Parameters such as the total neurite outgrowth, the number of neurons, the number of glial cells and the mean neurite length were assessed using a custom-made Imaris procedure. For a functional evaluation by means of a calcium response assay to glutamate, 30,000 cells were seeded per well and differentiated with supplementation of BDNF, NT-3 or combinations thereof. Via a fluorescent calcium binding dye, the cellular response to glutamate was quantified.
The effect of BDNF and NT-3 alone or in combination on organotypic spiral ganglion explant culture morphology was assessed. […] Neurite outgrowth (FIG. 13 A-C) and intersections (FIG. 13 D-F) were quantified. […]

[8] = test system: phoenix auditory neurons; experiment: Morphology of phoenix auditory neurons differentiated with neurotrophins (Imaris); assay type: cell-based, mouse; conditions: 72 h differentiation; peaking at 100 ng/mL
Procedure: FIG. 14 Impact of BDNF and NT-3 supplementation on morphology of phoenix auditory neurons. Phoenix neuroprogenitors were differentiated for 72 h in presence of various concentrations of BDNF or NT-3 in 96-well plates. […] (A-D) The untreated control is represented by the bar in the left of each of the four graphs, BDNF treated specimens in the bars in the middle of each of the four graphs, and NT-3 treated by the bars on the right of each of the four graphs. The dashed horizontal grey line marks the median of the control group. The numbers on the x-axis denote neurotrophin concentrations in ng/ml. The horizontal lines in the boxes denote the median value and the dots the mean value. Whiskers extend from minimum to maximum. […] Exemplary images of differentiated cells after 72 h in culture and immunohistochemical staining without treatment (E) and supplementation of 100 ng/mL BDNF (F) and 100 ng/mL NT-3 (G). (E-G) Scale bar: 100 μm.
as §2
The impact of BDNF and NT-3 supplementation on morphology of phoenix auditory neurons was also assessed. Phoenix neuroprogenitors were differentiated for 72 h in presence of various concentrations of BDNF or NT-3 in 96-well plates.

Q: Which EC50 [1] does the source give for `Nc1ncnc2c1ncn2[C@@H]1O[C@H](COP(=O)(O)OP(=O)(O)OP(=O)(O)O)[C@@H](O)[C@H]1O` [ATP] here?
A: The EC50 was 430 nM.

Q: What about the “Induction of Ca2+ transients” value [1] of the same molecule?
A: Its value is “Robust Ca^2+ transients”.

Q: How did the “ability of treated ANPGs to differentiate into neurons and glial cells” value ([2]; 7 days differentiation on Matrigel, BIII-tubulin and S-100 staining) turn out when `Cc1c[nH]c(-c2cnc(NCCNc3ccc(C#N)cn3)nc2-c2ccc(Cl)cc2Cl)n1` [CHIR, CHIR99021] was run?
A: The value was “able to differentiate into neurons”.

Q: What about the expansion over passages ([2]; number of cells/passage up to passage 13) of the same molecule?
A: The expansion over passages was “not able to expand”.

Q: How did the “stemness reprogramming, average growth (% ANPGs cultured in presence of GF+CHIR)” value [3] turn out when `COc1cc(-c2cc(-c3cccc(O)c3)cnc2N)cc(OC)c1OC` [compound 48, K02288] was run?
A: Its value is “hits”.

Q: What does the source list for `N[C@@H](CCC(=O)O)C(=O)O` [glutamate]?
A: EC50 [1]: 1160 nM; EC50 of glutamate-induced Ca2+ response ([1]; Phoenix ANs, glutamate increments, 1/2 serial dilutions): within the μM range; EC90 ([1]; first glutamate stimulation of phoenix auditory neurons, read-out: glutamate concentration given as EC90): 10000 nM; Induction of Ca2+ transients [1]: Robust Ca^2+ transients; Ca2+ response, live Ca2+ imaging ([4]; glutamate 100 uM, siANs differentiated for 7 days): robust Ca2+ response; EC50 of glutamate-induced Ca2+ response ([4]; stemness-induced ANs (Regenix), glutamate increments, 1/2 serial dilutions): within the μM range

Q: Which “Induction of Ca2+ transients” value [1] does the source give for `C=C(C)[C@H]1CN[C@H](C(=O)O)[C@H]1CC(=O)O` [kainate] here?
A: The value was “failed to induce Ca2+ excitatory transmission”.

Q: And the “Induction of Ca2+ transients” value ([1]; listed as Kainate)?
A: The value was “no effect”.

Q: What about the “Evoked Ca2+ transients” value [5] of the same molecule?
A: The value was “did not respond”.

Q: And the “Evoked Ca2+ transients” value [6]?
A: The value was “did not respond”.

B1: neurotrophin-3 (protein, UniProt P20783 139-257, looked up)
Neurotrophin-3: YAEHKSHRGEYSVCDSESLWVTDKSSAIDIRGHQVTVLGEIKTGNSPVKQYFYETRCKEARPVKNGCRGIDDKHWNSQCKTSQTYVRALTSENNKLVGWRWIRIDTSCVCALSRKIGRT
Q: For B1, which “Intersections (approximated number of neurons with outgrowth)” value [7] is on record?
A: Its value is “rose significantly in a dose-dependent manner”.

Q: And the “Neurite outgrowth (neurite length index, NLI)” value [7]?
A: The value was “significantly enhanced”.

Q: What about the “number of glial cells (exclusively GFAP positive cells)” value [8] of the same molecule?
A: Its value is “increased in general in a dose depended manner”.

Q: And the “number of neurons (exclusively beta-III-tubulin positive cells)” value [8]?
A: The value was “increased in general in a dose depended manner”.

Q: And the total neurite outgrowth [8]?
A: The total neurite outgrowth was “increased in general in a dose depended manner”.

B2: brain-derived neurotrophic factor (protein, UniProt P23560 19-247, looked up)
Neurotrophic factor BDNF …: APMKEANIRGQGGLAYPGVRTHGTLESVNGPKAGSRGLTSLADTFEHVIEELLDEDQKVRPNEENNKDADLYTSRVMLSSQVPLEPPLLFLLEEYKNYLDAANMSMRVRRHSDPARRGELSVCDSISEWVTAADKKTAVDMSGGTVTVLEKVPVSKGQLKQYFYETKCNPMGYTKEGCRGIDKRHWNSQCRTTQSYVRALTMDSKKRIGWRFIRIDTSCVCTLTIKRGR
notes: neurotrophin
Q: B2 was tested. Which “Intersections (approximated number of neurons with outgrowth)” value [7] did it give?
A: The value was “rose significantly in a dose-dependent manner”.

Q: What about the “Neurite outgrowth (neurite length index, NLI)” value [7] of the same molecule?
A: Its value is “significantly enhanced”.

Q: And the “number of glial cells (exclusively GFAP positive cells)” value [8]?
A: The value was “increased in general in a dose depended manner”.

Q: What about the “number of neurons (exclusively beta-III-tubulin positive cells)” value [8] of the same molecule?
A: The value was “increased in general in a dose depended manner”.

Q: What about the total neurite outgrowth [8] of the same molecule?
A: Its total neurite outgrowth is “increased in general in a dose depended manner”.
